Like-named read-outs stand apart in the source and are kept apart here.
Key:
[1] = system: Salmonella typhimurium TA102 strain; experiment: Ames assay (Salmonella typhimurium/reverse mutation assay), TA102 strain
Excerpt: (§1) TA97, TA98, TA100, and TA102 were used as standard test strains. The strains were provided by Jiangsu Provincial Center for Disease Control and Prevention and Guizhou Medical University. TA97 and TA98 strains primarily detect the genotoxic substances of frameshift mutants, while TA100 and TA102 strains detect DNA as a mutagenic substance for base pair substitution. TA102 strain has a different specificity from the other Salmonella strains routinely used in mutagenicity screening. It detects a variety of oxidative mutagens and seems to be more sensitive to some aldehydes and some DNA damaging compounds, which are negative with other Salmonella strains.
(§2) According to the standard Ames bacterial mutagenicity assay and Safety and Technical Standards for Cosmetics, the experiments were performed by the plate incorporation method with or without liver microsomal metabolic activation (S9) mixture. For the pure materials, the highest dose group was generally 5 mg/plate or 5 μL/plate. After the bacterial inhibition experiment, five dose groups (0.05, 0.5, 5, 50, 500 μg/plate) were determined for testing the chemicals. Three parallel plates were prepared for each dose. The chemicals (test chemicals or positive control drugs), the S9 system (with or without), and the S. typhimurium strains (TA97, TA98, TA100, TA102) were added to the nutrient mediums. The negative control (blank and solvent) groups and the positive control groups were also done with three parallel plates.
(§3) The chemicals and concentrations were as follows: In the absence of the S9 system: Dexon 50 μg/plate for the TA97, TA98, and TA102 strains, and NaN3 1.5 μg/plate for the TA100 strain.
(§4) Five concentrations for each chemical were tested for mutagenicity in the standard plate pre-incubation assay. The reported numbers of reverse mutation colonies per plate are mean values from triplicates obtained in one experiment. The experiment was repeated at two times.
(§5) All the plates for the experiments were incubated under the same conditions: 37 ± 0.5 °C, 48 h, dark.
(§6) The test series was set as 100%, 50%, 10%, 5%, and 0.5%. […] Then, 100 μL of the mixtures, which were at different doses, was added to each plate.
(§7) The mutagenicity ratio (MR) is calculated as MR = x/x0(1) where x is the number of reverse mutation colonies on compound-treated plates and x0 is the number of reverse mutation colonies in the negative control group.
(§8) When the mutagenicity ratio (MR) is ≥2 and the dose–response relationship and the background are normal, the mutagenesis is judged as positive.

[2] = system: Salmonella typhimurium TA98 strain; experiment: Ames assay (Salmonella typhimurium/reverse mutation assay), TA98 strain
Excerpt: as §1, §2, §3, §4, §5, §6, §7, §8

[3] = system: Salmonella typhimurium TA97 strain; experiment: Ames assay (Salmonella typhimurium/reverse mutation assay), TA97 strain
Excerpt: as §1, §2, §3, §4, §5, §6, §7, §8

[4] = system: S. typhimurium TA98 strain; experiment: Bacterial inhibition experiment, TA98 strain
Description: (§9) Bacterial inhibition experiment is necessary according to the standard Ames bacterial mutagenicity assay. Safety and Technical Standards for Cosmetics require that the maximum chemical dose should be 5 mg/plate. […] The maximum concentration of both were 50 mg/mL, then diluted to 25 mg/mL, 10 mg/mL, 5 mg/mL, and 0.5 mg/mL. Plates were poured with LB medium, and 0.1 mL of the above solution and 0.1 mL of bacterial solution per dish were added.
(§10) The criteria for determining the highest dose of the test substance are its toxicity to the bacteria and its solubility. A decrease in spontaneous reversion variables, a decrease in background bacteria, or a decrease in the number of bacteria in the culture being treated are signs of toxicity.
(§11) For this, bacterial growth inhibition tests were designed and carried out.

[5] = system: Salmonella typhimurium TA100 strain; settings: for Mutation effect, TA100 strain: absence of S9
Excerpt: as §1, §2, §3, §4, §5, §6, §7, §8

TA100 strain = settings: concentrations of 300 μg/plate and 500 μg/plate; cited from earlier work
[6] = system: S. typhimurium TA97 strain; experiment: Bacterial inhibition experiment, TA97 strain
Description: as §9, §10, §11

[7] = system: S. typhimurium TA102 strain; experiment: Bacterial inhibition experiment, TA102 strain
Description: as §9, §10, §11

[8] = system: S. typhimurium TA100 strain; experiment: Bacterial inhibition experiment, TA100 strain
Description: as §9, §10, §11

TA98 strain = settings: concentrations of 300 μg/plate and 500 μg/plate; cited from earlier work
[9] = dose 50 μg/plate, −S9, positive control

CN(C)c1ccc(N=NS(=O)(=O)[O-])cc1.[Na+] [Dexon, reference compound]
Reverse mutation colonies TA102 −S9 ([1]; dose 50 μg/plate, −S9): 586 ± 83 colonies per plate | Mutagenicity ratio (MR) flag TA102 −S9 [1, 9]: * (MR ≥ 2 compared to control) | Reverse mutation colonies TA98 −S9 ([2]; dose 50 μg/plate, −S9): 1065 ± 137 colonies per plate | Mutagenicity ratio (MR) flag TA98 −S9 [2, 9]: * (MR ≥ 2 compared to control) | Reverse mutation colonies TA97 −S9 ([3]; dose 50 μg/plate): 1987 ± 203 colonies per plate | Mutagenicity ratio (MR) flag TA97 −S9 ([3]; dose 50 μg/plate, positive control): * (MR ≥ 2 compared to control)

O=C1c2cccc(O)c2C(=O)c2c(O)cccc21 [Dantron, reference compound]
Reverse mutation colonies TA102 +S9 ([1]; dose 50 μg/plate, +S9): 625 ± 71 colonies per plate | Mutagenicity ratio (MR) flag TA102 +S9 ([1]; dose 50 μg/plate, +S9, positive control): * (MR ≥ 2 compared to control)

O=C(c1ccccc1)c1ccc(O)cc1O [BP-1, benzophenone-1]
Reverse mutation colonies TA102 +S9 ([1]; dose 0.05 μg/plate, +S9): 350 ± 11 colonies per plate | Reverse mutation colonies TA102 −S9 ([1]; dose 0.05 μg/plate, −S9): 311 ± 12 colonies per plate | Reverse mutation colonies TA102 +S9 ([1]; dose 0.5 μg/plate, +S9): 369 ± 10 colonies per plate | Reverse mutation colonies TA102 −S9 ([1]; dose 0.5 μg/plate, −S9): 369 ± 18 colonies per plate | Reverse mutation colonies TA102 +S9 ([1]; dose 5 μg/plate, +S9): 443 ± 8 colonies per plate | Reverse mutation colonies TA102 −S9 ([1]; dose 5 μg/plate, −S9): 355 ± 20 colonies per plate | Reverse mutation colonies TA102 +S9 ([1]; dose 50 μg/plate, +S9): 429 ± 8 colonies per plate | Reverse mutation colonies TA102 −S9 ([1]; dose 50 μg/plate, −S9): 407 ± 16 colonies per plate | Reverse mutation colonies TA102 +S9 ([1]; dose 500 μg/plate, +S9): 390 ± 10 colonies per plate | Reverse mutation colonies TA102 −S9 ([1]; dose 500 μg/plate, −S9): 7 ± 4 colonies per plate | Mutagenicity, TA102 strain ([1]; presence or absence of S9): not mutagenic | Bacterial inhibition t-Test Result TA98 ([4]; dose 50 μg/plate): − | Bacterial inhibition t-Test Result TA98 ([4]; dose 500 μg/plate): + (t-test (p < 0.05)) | Bacterial inhibition t-Test Result TA98 ([4]; dose 1000 μg/plate): + (t-test (p < 0.05)) | Bacterial inhibition t-Test Result TA98 ([4]; dose 2500 μg/plate): ++ (t-test (p < 0.01)) | Bacterial inhibition t-Test Result TA98 ([4]; dose 5000 μg/plate): ++ (t-test (p < 0.01)) | Mutation effect, TA100 strain ([5]; dose 0.5 μg/plate): significant mutation effect | Mutation effect, TA100 strain ([5]; doses of 5, 50, and 500 μg/plate): no obvious mutations | Reverse mutation colonies TA100 +S9 ([5]; dose 0.05 μg/plate): 174 ± 13 colonies per plate | Reverse mutation colonies TA100 −S9 ([5]; dose 0.05 μg/plate, −S9): 239 ± 17 colonies per plate | Reverse mutation colonies TA100 +S9 ([5]; dose 0.5 μg/plate): 193 ± 12 colonies per plate | Mutagenicity ratio (MR) flag TA100 −S9 ([5]; dose 0.5 μg/plate, −S9): * (MR ≥ 2 compared to control) | Reverse mutation colonies TA100 −S9 ([5]; dose 0.5 μg/plate, −S9): 458 ± 29 colonies per plate | Reverse mutation colonies TA100 +S9 ([5]; dose 5 μg/plate): 191 ± 8 colonies per plate | Reverse mutation colonies TA100 −S9 ([5]; dose 5 μg/plate, −S9): 153 ± 2 colonies per plate | Reverse mutation colonies TA100 +S9 ([5]; dose 50 μg/plate): 196 ± 4 colonies per plate | Reverse mutation colonies TA100 −S9 ([5]; dose 50 μg/plate, −S9): 188 ± 15 colonies per plate | Reverse mutation colonies TA100 +S9 ([5]; dose 500 μg/plate): 122 ± 4 colonies per plate | Reverse mutation colonies TA100 −S9 ([5]; dose 500 μg/plate, −S9): 181 ± 10 colonies per plate | Mutagenicity, TA100 strain (TA100 strain): None of the compounds produced clear positive mutagenicity results | Bacterial inhibition t-Test Result TA97 ([6]; dose 50 μg/plate): − | Bacterial inhibition t-Test Result TA97 ([6]; dose 500 μg/plate): + (t-test (p < 0.05)) | Bacterial inhibition t-Test Result TA97 ([6]; dose 1000 μg/plate): + (t-test (p < 0.05)) | Bacterial inhibition t-Test Result TA97 ([6]; dose 2500 μg/plate): ++ (t-test (p < 0.01)) | Bacterial inhibition t-Test Result TA97 ([6]; dose 5000 μg/plate): ++ (t-test (p < 0.01)) | Bacterial inhibition t-Test Result TA102 ([7]; dose 50 μg/plate): − | Bacterial inhibition t-Test Result TA102 ([7]; dose 500 μg/plate): + (t-test (p < 0.05)) | Bacterial inhibition t-Test Result TA102 ([7]; dose 1000 μg/plate): + (t-test (p < 0.05)) | Bacterial inhibition t-Test Result TA102 ([7]; dose 2500 μg/plate): ++ (t-test (p < 0.01)) | Bacterial inhibition t-Test Result TA102 ([7]; dose 5000 μg/plate): ++ (t-test (p < 0.01)) | Bacterial inhibition t-Test Result TA100 ([8]; dose 50 μg/plate): − | Bacterial inhibition t-Test Result TA100 ([8]; dose 1000 μg/plate): + (t-test (p < 0.05)) | Bacterial inhibition t-Test Result TA100 ([8]; dose 2500 μg/plate): ++ (t-test (p < 0.01)) | Bacterial inhibition t-Test Result TA100 ([8]; dose 5000 μg/plate): ++ (t-test (p < 0.01)) | Reverse mutation colonies TA98 +S9 ([2]; dose 0.05 μg/plate): 51 ± 7 colonies per plate | Reverse mutation colonies TA98 −S9 ([2]; dose 0.05 μg/plate, −S9): 43 ± 13 colonies per plate | Reverse mutation colonies TA98 +S9 ([2]; dose 0.5 μg/plate): 48 ± 2 colonies per plate | Reverse mutation colonies TA98 −S9 ([2]; dose 0.5 μg/plate, −S9): 46 ± 8 colonies per plate | Reverse mutation colonies TA98 +S9 ([2]; dose 5 μg/plate): 52 ± 7 colonies per plate | Reverse mutation colonies TA98 −S9 ([2]; dose 5 μg/plate, −S9): 33 ± 3 colonies per plate | Reverse mutation colonies TA98 +S9 ([2]; dose 50 μg/plate): 36 ± 1 colonies per plate | Reverse mutation colonies TA98 −S9 ([2]; dose 50 μg/plate, −S9): 22 ± 9 colonies per plate | Reverse mutation colonies TA98 +S9 ([2]; dose 500 μg/plate): 23 ± 2 colonies per plate | Reverse mutation colonies TA98 −S9 ([2]; dose 500 μg/plate, −S9): 0 ± 1 colonies per plate | Mutagenicity result, TA98 strain ([2]; systems both with and without S9): not mutagenic | Mutagenicity, TA98 strain (TA98 strain): None of the compounds produced clear positive mutagenicity results | Mutagenic activities, TA97 strain ([3]; +S9 system, doses from 0.05 μg/plate to 500 μg/plate): no mutagenic activities were detected | Mutagenicity, TA97 strain ([3]; absence of S9, doses of 0.05 and 0.5 μg/plate): significant mutagenicity | Reverse mutation colonies TA97 +S9 ([3]; dose 0.05 μg/plate): 151 ± 8 colonies per plate | Mutagenicity ratio (MR) flag TA97 −S9 ([3]; dose 0.05 μg/plate): * (MR ≥ 2 compared to control) | Reverse mutation colonies TA97 −S9 ([3]; dose 0.05 μg/plate): 925 ± 13 colonies per plate | Reverse mutation colonies TA97 +S9 ([3]; dose 0.5 μg/plate): 143 ± 10 colonies per plate | Mutagenicity ratio (MR) flag TA97 −S9 ([3]; dose 0.5 μg/plate): * (MR ≥ 2 compared to control) | Reverse mutation colonies TA97 −S9 ([3]; dose 0.5 μg/plate): 697 ± 56 colonies per plate | Reverse mutation colonies TA97 +S9 ([3]; dose 5 μg/plate): 146 ± 10 colonies per plate | Reverse mutation colonies TA97 −S9 ([3]; dose 5 μg/plate): 185 ± 10 colonies per plate | Reverse mutation colonies TA97 +S9 ([3]; dose 50 μg/plate): 149 ± 11 colonies per plate | Reverse mutation colonies TA97 −S9 ([3]; dose 50 μg/plate): 83 ± 6 colonies per plate | Reverse mutation colonies TA97 +S9 ([3]; dose 500 μg/plate): 88 ± 20 colonies per plate | Reverse mutation colonies TA97 −S9 ([3]; dose 500 μg/plate): 6 ± 1 colonies per plate

Reference: PMC6164588 (International Journal of Environmental Research and Public …, 2018)
